Assay results: patent publication US5837479A, “Screening assays for inhibitors of mammalian prostaglandin H synthase-2” (priority 1995, dated 1998)
Where two headings read alike, the source gives them in different places.

Tests used:
[1] = test system: PGHS-2 expression, astrocytes; settings: cultured murine and rat astrocytes; cited from earlier work
[2] = test system: griPGHS mRNA (4.8-kb mRNA), human monocytes; format: cell-based; settings: for griPGHS mRNA increase relative to control: IL-1β 10 half-maximal units
Procedure: (§1) FIGS. 3A-3B are a photographic depiction of autoradiographies obtained by Northern blotting monitoring the expression of the genes encoding griPGHS and the constitutive PGHS-1, as expressed in human monocytes, in response to interleukin-1 treatment, a known mediator of inflammation. Adherent human monocytes isolated from healthy donors were suspended in medium without serum at 1×10^6 cells/ml. One ml aliquots in 5 ml polypropylene tubes were incubated with loosened caps in 5% CO2 at 37° C. with occasional shaking. FIGS. 3A-3B are more fully described as follows:
(§2) Five μg was subjected to Northern blot analysis with the indicated probes.
(§3) Cycloheximide (25 μM) was added to one set of incubations 15 min prior to he addition of cytokine or hormone.
(§4) Poly-A enriched RNAs (2.5 μg) from C127 cells were fractionated by formaldehyde-agarose gel electrophoresis and transferred to a membrane (Duralon, Stratagene). Hybridization was carried out as previously described by O'Banion et al., 1991, J. Virol., 65:3481-3488, using the 5' 1.2 kb EcoR1 fragment of the 4.1 kb cDNA labeled with ^32 P by random priming as disclosed by Feinberg et al., 1983, Anal. Biochem., 132:6-13. The membrane was later rehybridized with a similarly labeled portion (1.6 kb 5' end) of the 2.8 kb ovine PGHS cDNA (Oxford Biomedical Research, Inc.), and an end-labeled 40-mer complimentary to β-tubulin (Oncor). RNA molecular weight markers (Life Technologies) were visualized by ethidium bromide staining. A similar analysis was performed on total RNA (5 µg/lane) isolated from human monocytes by the guanidinium-acid-phenolextraction method of Chomczynski et al., 1987, Anal. Biochem., 162:156-159.
(§5) Adherent human monocytes isolated from healthy donors as described by Roberts et al., 1978, J. Immunol, 121:1052-1058, were suspended in M199 medium without serum at 1×10^6 cells/ml. One ml aliquots in 5 ml polypropylene tubes were incubated with loosened caps in 5% CO2 at 37° C. with occasional shaking. […] Five μg RNA was subjected to Northern blot analysis as described by O'Banion et al., 1991, J. Biol. Chem., 34:23261-23267 with the indicated probes labeled by random priming (kit from Boehringer-Mannheim) to a specific activity >1×10^9 cpm/μg. […] Cycloheximide (25 μM; Sigma) was added to one set of incubations 15 min prior to the addition of cytokine or hormone.

[3] = test system: 2.8-kb PGHS mRNA (PGHS-1), human monocytes; format: cell-based
Procedure: as §1, §2, §3, §4, §5

[4] = test system: familial polyposis (colon polyps); settings: patients with familial polyposis; cited from earlier work
COS cells = assay: toxicity to COS cells; format: cell-based, monkey; settings: 800 μg/ml Geneticin (active component 657 μg/ml)
Procedure: Sixty-mm plates of 50% confluent COS-A2 (monkey-kidney) cells, which contain little or no cyclooxygenase activity were transfected with 1-2.5 μg of purified pRC/CMV;hPGHS-2 plasmid, pRC/CMV;hPGHS-1 plasmid or the PRC/CMV vector alone by a calcium phosphate precipitation method (Chen et al., 1987, Mol. Cell. Biol., 7:2745-2752. Plates were incubated at 35° C., 3% CO2 for 24 hr in normal media (Dulbecco's modified Eagle Media (DMEM)+10% fetal bovine serum). After two rinses with warm DMEM, plates were transferred to 37° C., 5% CO2 for an additional 24 hr. Selection was then started with normal media containing 800 μg/ml of Geneticin (active component G418, 657 μg/ml, Life Technologies), a concentration which is toxic for COS cells. […] Twelve to twenty-four colonies from each transfection were isolated using cloning cylinders. The majority of these survived continued G418 selection during clonal cell-line expansion.

[5] = test system: 72-74 kDa protein doublet, BALB/c 3T3 fibroblasts; settings: cited from earlier work
[6] = test system: cystic fibrosis lung disease; settings: high-dose, cystic fibrosis patients; cited from earlier work
[7] = test system: 2.8-kb mRNA encoding PGHS-1; assay: level of 2.8-kb PGHS-1 mRNA in C127 mouse fibroblasts; format: cell-based; settings: C127 cells
[8] = test system: human PGHS-2 (versus human PGHS-1); assay: NSAID inhibition of human PGHS-2 activity in stably transformed COS cells (4B4), compared with human PGHS-1 cells (H17A5); format: cell-based; settings: 30 min preincubation, 15 min arachidonic acid; FIGS. 8A-8D and 9A-9D
Procedure: PGHS-1 and PGHS-2 cell lines (including 4B4 and H17A5) were exposed to various concentrations of NSAID for 30 min in serum-free DMEM. […] Controls consisted of no drug treatment and cells treated with the maximal concentrations of drug vehicles (1% methanol or ethanol). […] Cyclooxygenase activity was determined as described herein above.

colorectal carcinoma = settings: several clinical trials; cited from earlier work
4-kb mRNA (PGHS-2) = assay: level of 4-kb PGHS-2 mRNA in C127 mouse fibroblasts; format: cell-based; settings: C127 cells
Excerpt: Three of four potential N-glycosylation sites are conserved between the two molecules and there is particularly high similarity in the regions surrounding a putative axial heme-binding domain (amino acids 273-342) and the region around the presumed aspirin modified-serine^516 (amino acids 504-550). By far the largest difference in the two cDNAs is the presence of a 2.1 kb 3' untranslated region in the 4.1 kb cDNA. This region is rich in 5'-AUUUA-3' motifs that are associated with the decreased stability of many cytokine and protooncogene mRNAs. The presence of these motifs is consistent with the profound superinducibility of the 4.1 kb mRNA by cycloheximide, which is not observed for the 2.8 kb mRNA.

[9] = test system: C127 mouse fibroblasts (protein synthesis); assay: inhibition of protein synthesis in C127 mouse fibroblasts; format: cell-based; settings: C127, 0.25 h, within 15 min
Excerpt: C127 mouse fibroblasts were obtained from Peter Howley (NIH) and propagated in high glucose Dulbecco's modified Eagle's medium supplemented with 10% fetal bovine serum (HyClone Laboratories) without antibiotics. See, Lowy et al., 1978, J. Virol., 26:291-298. Cultures were monitored for mycoplasma contamination by Hoechst 33258 staining in accord with the procedure of Chen, 1977, Exp. Cell Res., 104:255-262.
Exponentially growing, subconfluent (60-80%) cell monolayers (35-mm plates) were labeled in Dulbecco's modified Eagle's medium without methionine (Life Technologies) plus 200 μCi/ml Tran^35 S-label (>1,000 Ci/mmol; ICN) for 15 or 30 min. In some cases, fresh fetal calf serum (10%) was present during the labeling period. Monolayers were rinsed twice with ice-cold Dulbecco's modified Eagle's medium (DMEM) with methionine prior to lysis in 200 μl of A8 buffer (9.5M urea, 2% (w/v) Nonidet P-40, 2% (w/v) ampholines (LKB, 1.6% pH range 5-8, 04. % pH range 3.5-10), 5% (w/v) 2-mercaptoethanol). Incorporation of label into proteins was determined by trichloroacetic acid precipitation. […] The calcium ionophore A23187 (Calbiochem) was used at a concentration of 5 μM from a 2.5 mM stock in ethanol. Cycloheximide (Sigma) was used at a concentration of 25 μM from a 100 X stock in water. This level inhibited protein synthesis by >97% within 15 min. […]

preterm labor = settings: in vivo; cited from earlier work

Compound: IL-1β: IL-1β (10 half-maximal units, Collaborative Research), a known mediator of inflammation
- regulation of PGHS-2 expression in astrocytes [1]: strongly up-regulated
- time of peak PGHS-2 mRNA level [1]: 2 h
- griPGHS mRNA increase relative to control ([2]; 4 hr): 2.5 fold
- griPGHS mRNA increase relative to control ([2]; 12 hr): 14 fold
- levels of 2.8-kb mRNA relative to β-tubulin [3]: not significantly altered

Compound: CC1=C(CC(=O)O)c2cc(F)ccc2/C1=C\c1ccc([S+](C)[O-])cc1 (stereo not shown) [Sulindac]
- colon polyp regression [4]: colon polyp regression

Compound: CN[C@@H]1[C@@H](O)[C@@H](O[C@@H]2[C@@H](O)[C@H](O[C@H]3O[C@H]([C@@H](C)O)[C@@H](O)[C@H](O)[C@H]3N)[C@@H](N)C[C@H]2N)OC[C@]1(C)O [G418]
- toxicity for COS cells (COS cells): toxic

Compound: platelet-derived growth factor
- synthesis of 72-74 kDa protein doublet [5]: transiently increased

Compound: CC(C)Cc1ccc(C(C)C(=O)O)cc1 (stereo not shown) [ibuprofen]
- progression of lung disease [6]: slows the progression of lung disease

Compound: TNFα
- regulation of PGHS-2 expression in astrocytes [1]: strongly up-regulated
- time of peak PGHS-2 mRNA level [1]: 2 h

Compound: C[C@@H]1C[C@H]2[C@@H]3CCC4=CC(=O)C=C[C@]4(C)[C@@]3(F)[C@@H](O)C[C@]2(C)[C@@]1(O)C(=O)CO [dexamethasone]
- change in 2.8-kb PGHS-1 mRNA level [7]: no change
- level of 2.8-kb PGHS mRNA ([3]; 4 hr, normalized to β-tubulin): not affected

Compound: CC(=O)Oc1ccccc1C(=O)O [aspirin]
- levels of drug required for inhibition, PGHS-1 versus PGHS-2 cells [8]: different for the cells expressing PGHS-1 versus those expressing PGHS-2
- colon tumor growth and death (colorectal carcinoma): decreased colon tumor growth and death

Compound: C[C@@H]1C[C@@H]([C@H](O)CC2CC(=O)NC(=O)C2)C(=O)[C@@H](C)C1 [cycloheximide]
- accumulation of 4-kb mRNA (4-kb mRNA (PGHS-2)): accumulates to significant levels
- change in 2.8-kb PGHS-1 mRNA level [7]: no change
- superinduction of 4.8-kb mRNA ([2]; cycloheximide 25 μM, added 15 min before cytokine or hormone): superinduction of the 4.8-kb mRNA was clearly evident
- levels of 2.8-kb mRNA relative to β-tubulin ([3]; IL-1β, dexamethasone or cycloheximide treatment): not significantly altered
- inhibition at 25 µM [9]: > 97%

Compound: COc1ccc2c(c1)c(CC(=O)O)c(C)n2C(=O)c1ccc(Cl)cc1 [indomethacin]
- premature closure of the ductus arteriosus of the fetus (preterm labor): raises concern with premature closure of the ductus arteriosus
- levels of drug required for inhibition, PGHS-1 versus PGHS-2 cells [8]: different for the cells expressing PGHS-1 versus those expressing PGHS-2
